Positions count from the first letter of the chain named. Values joined by “and” are separate entries in the source; they are usually repeats but may differ in a detail not shown here. Equal entries are not always repeated. “Also recorded” adds a separate entry of the source. Where two headings read alike, the source gives them in different places.
Columns and labels:
PTP1B-CASA = biological target: T1, PTP1B-CASA (Homo sapiens, UniProt P18031, C215A/S216A); assay: isothermal titration calorimetry; type: binding; settings: 25°C
T1 construct: PTP1B (1–321) and TCPTP (1–317) cloned in pET21b vector were used as templates; 6xHis (C); made in house; host or cells: E. coli BL21 (DE3)-RIL
T1 sequence (P18031 1-321 C215A/S216A limits assumed): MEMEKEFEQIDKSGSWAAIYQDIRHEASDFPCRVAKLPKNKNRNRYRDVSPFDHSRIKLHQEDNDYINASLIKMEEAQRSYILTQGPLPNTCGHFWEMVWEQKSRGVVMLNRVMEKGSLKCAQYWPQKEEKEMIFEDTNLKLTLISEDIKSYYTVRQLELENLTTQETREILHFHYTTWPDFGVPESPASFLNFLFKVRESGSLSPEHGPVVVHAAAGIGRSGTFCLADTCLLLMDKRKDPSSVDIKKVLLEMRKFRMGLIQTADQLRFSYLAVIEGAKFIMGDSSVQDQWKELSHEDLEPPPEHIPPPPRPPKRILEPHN
Protocol: (§1) The studies were performed using a VP-ITC system from GE Healthcare. All titrations were performed at 25°C in de-gassed buffer (50 mM HEPES pH 7.0, 100 mM NaCl, 2 % DMSO, and 1 mM TCEP). The protein concentrations of PTP1B-CASA and PTP1B-CASA-mut2 were each 50 μM. Protein samples used in ITC were dialyzed completely against the buffer. Inhibitor (10 mM) in DMSO was diluted to make a stock solution of 0.2 mM in de-gassed buffer, which was then used as titrant in the syringe. The instrument was calibrated by using the heat of dilution of NaCl in water. […] The heat of ligand dilution was corrected by subtracting the average heat of injection after saturation. Origin software was used to fit and analyze the data.

PTP1B-CASA-mut2 = biological target: T2, PTP1B-CASA-mut2 (Homo sapiens, UniProt P18031, C215A/K39E/K41R/L37F/S216A); assay: isothermal titration calorimetry; type: binding; settings: two independent experiments
T2 construct: PTP1B (1–321) and TCPTP (1–317) cloned in pET21b vector were used as templates; made in house; host or cells: E. coli BL21 (DE3)-RIL
T2 sequence (P18031 1-321 L37F/K39E/K41R/C215A/S216A limits assumed): T1 sequence (P18031 1-321 C215A/S216A limits assumed) with L37F, K39E, K41R
Protocol: as §1

[1] = biological target: T3, reversibly oxidized TCPTP-mut2 (F39L/E41K/R43K) (Homo sapiens, UniProt P17706, E41K/F39L/R43K); assay: in vitro binding assay (anti-HA co-immunoprecipitation)
T3 construct: PTP1B (1–321) and TCPTP (1–317) cloned in pET21b vector were used as templates; 6xHis (C); made in house; host or cells: E. coli BL21 (DE3)-RIL
T3 sequence (P17706 1-317 F39L/E41K/R43K): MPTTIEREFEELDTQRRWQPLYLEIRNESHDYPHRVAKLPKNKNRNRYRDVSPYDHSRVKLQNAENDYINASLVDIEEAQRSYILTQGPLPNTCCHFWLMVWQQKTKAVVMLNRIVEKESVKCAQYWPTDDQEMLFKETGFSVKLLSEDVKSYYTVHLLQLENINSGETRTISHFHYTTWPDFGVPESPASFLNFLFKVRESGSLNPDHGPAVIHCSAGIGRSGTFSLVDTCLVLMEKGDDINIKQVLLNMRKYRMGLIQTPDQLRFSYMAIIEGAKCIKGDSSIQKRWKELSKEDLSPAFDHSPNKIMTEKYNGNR
Protocol: (§2) Purified proteins (wt or mutant form of PTP1B or TCPTP (50 nM)) were reversibly oxidized with […] H2O2 followed by a buffer exchange using 0.5 mL Zeba spin desalting columns 7K MWCO (Thermo Fisher Scientific) to remove H2O2. Increasing concentration of purified HA-tagged scFv45 (0–10 µM) was incubated with oxidized proteins in binding buffer (20 mM HEPES, pH 7.4, 300 mM NaCl, 0.05% BSA, 0.05% Tween-20) for 2 h at 4 °C. Anti-HA agarose (Roche, 50% slurry equilibrated in the binding buffer) was added and incubated for 1 h at 4 °C. Protein complexes bound to anti-HA beads were immunoprecipitated and washed three times; first with lysis buffer followed by two more washes with wash buffer (25 mM HEPES, 100 mM NaCl pH 7.4, 0.05% BSA, 0.05% Tween-20, and protease inhibitors). The complexes were separated by SDS-PAGE and analyzed by immunoblotting.

[2] = biological target: T4, reversibly oxidized PTP1B-mut2 (L37F/K39E/K41R) (Homo sapiens, UniProt P18031, K39E/K41R/L37F); assay: as above
T4 construct: PTP1B (1–321) and TCPTP (1–317) cloned in pET21b vector were used as templates; 6xHis (C); made in house; host or cells: E. coli BL21 (DE3)-RIL
T4 sequence (P18031 1-321 L37F/K39E/K41R): T1 sequence (P18031 1-321 C215A/S216A limits assumed) with L37F, K39E, K41R, A215C, A216S
Protocol: as §2

TCPTP = tested on: TCPTP; design: method as in PMID 21962515; settings: oxidized or reduced states; cited from earlier work

## COc1ccc2c(c[n+](C)c3c4cc5c(cc4ccc23)OCO5)c1OC [chelerythrine]
PTP1B-CASA; read-out: binding constant for PTP1B-CASA by ITC
  Kd: 3 µM
PTP1B-CASA; independent experiments, read-out: affinity for PTP1B-CASA by ITC
  Kd: 3.25 µM and 2.83 µM and 3.44 µM
PTP1B-CASA-mut2
  binding to PTP1B-CASA-mut2 by ITC: No apparent binding; also recorded: did not detect saturable binding

B1: scFv45: recombinant conformation-sensor single-chain variable fragment antibody recognizing oxidized PTP1B (antibody, V domains shown)
VH: TVTLDESGGGLQAPGGALSLVCKASGFTFSSYDMGWIRQAPGKGLEYVAGITDNGRYASYGSAVDGRATISRDNGQSSVRLQLNNLRAEDTGTYYCARDDGSGWTGNSIDAWGHGTEVIVSE
VL: ALTQPSSVSANPGGTVKITCSGSSSAYGYGWYQQKSPGSAPVTVIYNNNKRPSNIPSRFSGSKSGSTGTLTITGVQAEDEAVYFCGSEDSSTDAIFGAGTTLTVL
[1]
  binding to reversibly oxidized TCPTP-mut2: promote binding
[2]
  binding to reversibly oxidized PTP1B-mut2: did not bind; also recorded: abrogated
TCPTP
  binding to TCPTP: does not bind
